Results taken from article PMC6722389, “Cryo-EM structure of the Ustilago maydis kinesin-5 motor domain bound to microtubules” (Journal of Structural Biology, 2019).

How the values were obtained:
UmKin5 = molecular target: T1, UmKin5 (Mycosarcoma maydis, UniProt A0A0D1DQH0); test: cryo-EM structure; conditions: microtubule-bound (bovine brain tubulin, paclitaxel); 5 mM AMPPNP, 1 mM MgCl2, pH 6.8; nucleotide binding site; overall resolution 4.3 Å, motor ~5-7 Å
T1 construct: gene UMAG_10678; motor domain residues 73-456 without N-terminal extension; N-terminal His6 tag removed by TEV protease; E. coli BL21*(DE3); monomeric

N+UmKin5 = molecular target: T2, N+UmKin5 (Mycosarcoma maydis, UniProt A0A0D1DQH0); test: cryo-EM structure; conditions: microtubule-bound (bovine brain tubulin, paclitaxel); 5 mM AMPPNP, 1 mM MgCl2, pH 6.8; nucleotide binding site; overall resolution 4.5 Å, motor ~5-7 Å
T2 construct: gene UMAG_10678; motor domain with 72-residue N-terminal extension, residues 1-456; N-terminal His6 tag removed by TEV protease; E. coli BL21*(DE3); monomeric

Question: For `Nc1ncnc2c1ncn2[C@@H]1O[C@H](COP(=O)(O)OP(=O)(O)NP(=O)(O)O)[C@@H](O)[C@H]1O` [AMPPNP], which cryo-EM structure (UmKin5) is on record?
Answer: Its cryo-EM structure is “Strong density is visible at the nucleotide binding site consistent with the presence of AMPPNP”.

Question: What about the cryo-EM structure (N+UmKin5) of the same compound?
Answer: The cryo-EM structure was “Both constructs bound the MT lattice in the presence of the non-hydrolysable ATP analogue AMPPNP”.
